Measured values as given in article PMC4210147, “Sequence-Specific Dimerization of a Transmembrane Helix in Amphipol A8-35” (PLoS ONE, 2014).

Target: T1, human GpA TM domain (Homo sapiens, UniProt P02724)
T1 construct: purchased Peptide Specialty Laboratories, Heidelberg, Germany; host or cells: chemical synthesis (custom peptide)
T1 sequence (P02724 88-120 limits assumed) 1: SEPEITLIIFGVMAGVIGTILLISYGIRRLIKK
T1 sequence (P02724 88-120 limits assumed) 2: T1 sequence (P02724 88-120 limits assumed) 1
Test: Steady-state FRET, GpA TM helix dimer dissociation upon addition of SDS (mixed A8-35/SDS aggregates)
Type: binding
Procedure: For Förster resonance energy transfer (FRET) measurements, equal concentrations of FL- and TAMRA-labeled GpA TM domains were used. Concentrations of the peptide stock solutions were determined from absorbance measurements on a Perkin Elmer Lambda 35 UV/VIS spectrophotometer. In all experiments, we used 0.25 µM for each of the two labeled GpA peptides. Peptides dissolved in TFE and A8-35 dissolved in ethanol were mixed, and organic solvents were removed under a gentle stream of nitrogen gas. Residual solvent traces were removed by vacuum desiccation overnight. The dried peptide/polymer film was then hydrated in 10 mM HEPES buffer (pH 7.4) containing 150 mM NaCl.
After at least 2 h of incubation at 37°C and 10 min of centrifugation at 16,000 g, steady-state fluorescence measurements were performed with the supernatant at 25°C on a Horiba Fluoromax 4 system with both excitation and emission slits at 3 nm. The excitation wavelength was set at 439 nm, and emission spectra were recorded from 480 to 650 nm. For FRET measurements with SDS, several concentrations of SDS, both below and above the CMC determined for the given buffer conditions, were used, and hydrated samples were incubated overnight.
Energy transfer E was calculated using the donor fluorescence intensities at 525 nm in presence and absence of acceptor according to [drawing 1] (1)
FD is the fluorescence intensity of the donor sample, and FDA is the fluorescence intensity of the sample containing donor and acceptor GpA TM domains at equal concentrations. The energy transfer of sequence-specific TM helix dimerization, ED, can be expressed as: [drawing 2] (2) where f D is the fraction of dimeric TM helices, P D is the probability of donor quenching when the peptides form a dimer, and E R is the energy transfer in the dimer.
The probability P D of donor quenching depends on the molar ratio of the acceptor peptides [drawing 3] , where [a] and [d] are the concentrations of acceptor and donor peptides, respectively. If the distance of the fluorophores in the dimer is much smaller than the Förster radius, as is the case here, ER can be taken as unity.
The fraction of dimers can be written as [drawing 4] , where [D] is the concentration of dimeric peptides and [T] the total peptide concentration.
The dissociation constant, K D, is given by [drawing 6] (4) where the monomer concentration is [drawing 7] .
This indicates a strong destabilization of the GpA dimer after addition of SDS, resulting in dissociation of GpA TM dimers in mixed A8-35/SDS aggregates. […]
Figure 6 Dissociation of the GpA TM domain in APol upon addition of SDS. […] SDS was added to preformed APol/GpA complexes, and emission spectra were recorded at 25°C after incubation at 37°C. […]

CC[C@H](C)[C@H](NC(=O)CNC(=O)[C@H](Cc1ccc(O)cc1)NC(=O)[C@H](CO)NC(=O)[C@@H](NC(=O)[C@H](CC(C)C)NC(=O)[C@H](CC(C)C)NC(=O)[C@@H](NC(=O)[C@@H](NC(=O)CNC(=O)[C@@H](NC(=O)[C@@H](NC(=O)CNC(=O)[C@H](C)NC(=O)[C@H](CCSC)NC(=O)[C@@H](NC(=O)CNC(=O)[C@H](Cc1ccccc1)NC(=O)[C@@H](NC(=O)[C@@H](NC(=O)[C@H](CC(C)C)NC(=O)[C@@H](NC(=O)[C@@H](NC(=O)[C@H](CCC(=O)O)NC(=O)[C@@H]1CCCN1C(=O)[C@H](CCC(=O)O)NC(=O)[C@@H](N)CO)[C@@H](C)CC)[C@@H](C)O)[C@@H](C)CC)[C@@H](C)CC)C(C)C)C(C)C)[C@@H](C)CC)[C@@H](C)O)[C@@H](C)CC)[C@@H](C)CC)C(=O)N[C@@H](CCCNC(=N)N)C(=O)N[C@@H](CCCNC(=N)N)C(=O)N[C@@H](CC(C)C)C(=O)N[C@H](C(=O)N[C@@H](CCCCN)C(=O)N[C@@H](CCCCN)C(=O)O)[C@@H](C)CC [GpA TM domain]
complete unfolding of GpA dimer in APol/SDS mixed micelles (20 µM A8-35 with SDS, analyzed concentration range, compared with DDM/SDS): not observed in case of APol/SDS mixed micelles | fraction of dimeric GpA (SDS exceeding 1.5 mM, 20 µM A8-35, 0.5 µM labeled GpA TM domain, 25°C, n = 3): about 0.3 | increase in the dissociation constant upon SDS addition (no SDS vs SDS exceeding 1.5 mM, 20 µM A8-35, 0.5 µM labeled GpA TM domain, 25°C, n = 3): about one order of magnitude | fraction of dimeric GpA (no SDS, 20 µM A8-35, 0.5 µM labeled GpA TM domain, 25°C, n = 3): 0.7
